{
  "source": "patent EP0136475A2",
  "about": "“Novel growth hormone-releasing peptides and method of treating mammals therewith” (The Administrators of The Tulane University Educational Fund, priority 1983, dated 1985)",
  "origin": "cited, not measured here",
  "system": "rat anterior pituitary",
  "note": "No end group written: not given here.",
  "data": [
    {"substance": "hpGRF: growth hormone-releasing factors (GRF) of human pancreatic islet tumor origin (YADAIFTNSYRKVLGQLSARKLLQDIMSRQQGESNQERGARARL-NH2; ends and bridges not checked; UniProt P01286 32-75, looked up)", "values": [
      {"measurement": "growth hormone(GH)-releasing activity", "setting": "rat anterior pituitary in vitro and in vivo", "result": "possess growth hormone(GH)-releasing activity"}
    ]},
    {"substance": "hp GRF(1-29)-NH2: a synthetic amidated fragment of the natural hp GRF (YADAIFTNSYRKVLGQLSARKLLQDIMSR-NH2; UniProt P01286 32-60, looked up, fragment)", "values": [
      {"measurement": "intrinsic biological activity", "setting": "reported by Spiess et al.", "result": "full intrinsic biological activity"}
    ]}
  ]
}
